The results in this text go back to patent publication US10172839B2, “Use of short term starvation regimen in combination with kinase inhibitors to enhance traditional chemo-drug efficacy and feasibility and reverse side effects of kinases in normal cells and tissues” (UNIVERSITY OF SOUTHERN CALIFORNIA, priority 2014, dated 2019).

A short description of data set [1]: Blood glucose levels in mice treated with STS, rapamycin, and rapamycin with STS. The data set is classed as in vivo. How it is done:
Methods: Short term starvation (STS) or fasting mimicking diet (FMD) were administrated bi-weekly for periods of 48 h or 4 days, respectively. The end of the dietary intervention coincided with the administration of doxorubicin by intravenous injection. The animals were given a period of 10 to 12 days to recover bodyweight between one cycle of dietary intervention and the next. […] One-way ANOVA test was performed and differences with p-value<0.05 were considered significant (p-value<0.05, 0.01 and 0.001 are indicated as *, […], respectively).

Data set [2] can be described thus: Stress resistance experiment: survival after high dose doxorubicin.

As for `CO[C@H]1C[C@@H]2CC[C@@H](C)[C@@](O)(O2)C(=O)C(=O)N2CCCC[C@H]2C(=O)O[C@H]([C@H](C)C[C@@H]2CC[C@@H](O)[C@H](OC)C2)CC(=O)[C@H](C)/C=C(\C)[C@@H](O)[C@@H](OC)C(=O)[C@H](C)C[C@H](C)/C=C/C=C/C=C/1C` [rapamycin], the blood glucose entry in data set [1] (Rapa+STS/FMD mice (FIG. 1A)) is listed as “decreased blood glucose”; in data set [1] (rapamycin alone, intraperitoneally every day, ad lib feeding (FIG. 1A)), “increase of blood glucose”. In addition, the “mortality / survival at day 20” value is “STS can reverse the sensitization of normal tissue to chemotherapy induced by rapamycin” in data set [2] (rapamycin 14 days + STS 48 h prior to doxorubicin 24 mg/kg iv (FIG. 2B)) and “increased mortality” in data set [2] (rapamycin 14 days, then doxorubicin 24 mg/kg iv, ad lib feeding (FIG. 2B)).
